Assay results published in patent US12070458B2, “Therapeutic agent composition and method of use, for treatment of mild congnitive impairment, depression, and psychological disorders” (priority 2018, dated 2024).

What was measured:
[1] = tested on: patients with major depressive disorder; experiment: Double-blind, randomized, placebo-controlled, active reference study in patients with major depressive disorder; type: in vivo, human; conditions: for change from baseline in MADRS total score, Mean ± SD / MADRS total score, Difference to Placebo: week 6, venlafaxine 75 mg/d orally
Source text: This randomized, double-blind, fixed-dose, placebo-controlled, active reference study recruited 32 randomized patients in accordance with the principles of Good Clinical Practice [ICH (1996). Harmonized Tripartite Guideline E6: Guideline for Good Clinical Practice (http://www.fda.gov/downloads/drugs/guidancecomplianceregulatoryinformation/gui dances/ucm073122.pdf)] and the Declaration of Helsinki [WMA (1964). Ethical Principles for Medical Research Involving Human Subjects (http://www.wma.net/en/30publications/10policies/b3/). World Medical Association.] Local ethics committees approved the study design and eligible patients gave their written informed consent before participating.
Eligible patients were randomized equally (1:1:1:1) to one of the four treatment arms for a 6-week double-blind treatment period. Randomized patients were given 1-week wallet cards at each visit and were instructed to take two capsules per day, orally, at the same time every day (preferably in the morning). NA-831 was dosed at 20 mg/day or 40 mg/d for 6 week and venlafaxine at 75 mg/d over 6-week treatment period. Efficacy and tolerability were assessed at screening, baseline and after 1, 2, 3, 4, 5, and 6 week. Patients were contacted for a safety follow-up 4 week after the completion visit.
Patients with MDD presenting with a current major depressive episode according to DSM-IV-TR criteria were included in the study if they were an outpatient of either sex, aged from 20 yr to 65 yr, (mean=39.7±8.5) (with a Montgomery—Åsberg Depression Rating Scale (MADRS) (Montgomery & Åsberg, 1979) total score ≥30 at the baseline visit. [Montgomery S Åsberg M (1979). A new depression scale designed to be sensitive to change. British Journal of Psychiatry 134 382-389.https://doi.org/10.1192/bjp.134.4.382]
Patients were evaluated using the MADRS from baseline to week 6. Rater training was undertaken to increase inter-rater reliability, and was supervised by an experienced investigator. Only those investigators who had actively participated in rater training sessions prior to inclusion of patients into the study were allowed to rate patients. Patient ratings were assessed by the same investigator at each visit, whenever possible.
All safety analyses were based on the all-patients-treated set (APT), comprising all randomized patients who took at least one dose of study medication. All efficacy analyses were based on a modified intent-to-treat set (ITT)—the full-analysis set (FAS), comprising all patients in the […] who had at least one valid post-baseline MADRS total score assessment.
Four hypotheses were part of the primary efficacy analysis, which was fully adjusted for multiplicity using a hierarchical testing procedure at the 5% level of significance as long as the previous hypothesis was rejected. The order of testing was: no difference between the 20 mg dose vs. placebo at week 6, no difference between […] at week 6, no difference between 20 mg dose vs. placebo at week 1, and finally no difference between 40 mg dose vs. placebo at week 1. The statistical model was an analysis of covariance (ANCOVA) of the change from baseline in MADRS total score (FAS, LOCF) with treatment and site as fixed factors and the baseline MADRS score as a covariate. The primary efficacy analysis was repeated on observed cases (OC) data, using both an ANCOVA and a mixed model for repeated measurements (MMRM).
All adverse effects (AEs) (including any change in concurrent illnesses or new illnesses) either observed by the investigator or reported spontaneously by the patient were recorded. AEs were coded using the lowest level term according to the Medical Dictionary for Regulatory Activities, version 10.0. As a post-hoc analysis, the safety database was searched at preferred-term and verbatim-term level for possible suicide-related AEs, as described by the FDA [Laughren (2006). Memorandum on Suicidality. (http://www.fda.gov/ohrms/dockets/ac/06/briefing/2006-4272b1-01-fda.pdf)].

[2] = tested on: cerebellar microexplants (P4); experiment: Glutamate induced neuronal death in cerebellar microexplants (P4); type: cell-based, Wistar rats
Protocol: Cerebellar Cell Culture Preparing and Coating of Cover Slips
Ten coverslips were placed into a large petri dish and washed in 70% alcohol for 5 minutes, then washed with Millipore H2O. The coverslips were air dried, then coated with Poly-D-Lysine (1 mg/ml stock solution in PBS, 90-100 μl) and incubated for 2 hours at 34° C.
Postnatal day 4 Wistar rats were used for the study. Rats were placed in ice for 1 minute, the heads were decapitated and the cerebellum removed on ice. Cerebellum tissue was placed in 1 ml of 0.65% glucose supplemented PBS (10 μl 65% stock D (+)glucose/1 ml PBS) in a large petri dish, chopped up into smaller sections and triturate with a 1 ml insulin syringe via a 23 G (0.4 mm) needle, and then squirted back into the glucose solution on the large petri dish. The tissue was sieved through (125 μm pore size gaze) and centrifuged (2 minutes at 60 g) two times for a medium exchange into serum-free BSA-supplemented START V medium (Biochrom). The second centrifugation step was done with 1 ml of START V medium. The microexplants were reconstituted into 500 μl of START V medium and put on ice.
Cultivation and Fixation of Cerebellar Cells
Two hours after PDL-coating, the slides were washed with Millipore H2O and air dried. Each slide was placed into a small 35 mm petri dish and 40 μl of START V/cell suspension added. The tissue was incubated for 2 hours at 34° C. (settlement period). START V-medium (1 ml) was then added to the petri dish and cultivated at 34° C./5% CO2/100% humidity for 48 hours. Cells were rinsed in PBS and then fixed for 2-3 minutes in increasing concentrations of paraformaldehyde (500 μl of 0.4% PFA was applied; then 1.2% PFA; then 3% PFA and finally 4% PFA—all fixation solutions contain 0.2% glutardialdehyde). Finally, the microexplants were rinsed in PBS.
(§1) 10 μl of toxin (L-glutamate-100 mM in Millipore water) was applied simultaneously with cPG (from bachem, 10 mM stock prepared in PBS and diluted to final concentrations between 1-100 nM) for Study 1. A delay in administration of cPG at 6 hours after glutamate treatment was performed for Study 2.
as §1, with “cyclic(tri(prolylglycyl)) (which was obtained from NeuroBiomed, San Jose, California),” for “cPG (from bachem,”, “cyclic(tri(prolylglycyl))” for “cPG”
as §1, with “cyclic Glycyl-2-Methyl Proline (obtained NeuroBiomed, San Jose California),” for “cPG (from bachem,”

[3] = tested on: 6-OHDA induced nigral-striatal lesion; experiment: 6-OHDA induced nigral-striatal lesion, apomorphine-induced contralateral rotations; type: in vivo, Wistar rats; conditions: 1 mg (mg/kg) i.p. 2 hours post lesion; 7 days post-lesion, apomorphine 0.1 mg/kg; n=5; vehicle 290±18 or 292±21
Protocol: Twenty male Wistar rats (280-310 g) were used. After exposing the skull, 6-OHDA (8 μg in a base of 2 μl 0.9% saline containing 1% ascorbic acid) was administered into the right medial forebrain bundle (MFB) using co-ordinates AP +4.7 mm, R 1.6 mmv −8 mm under 3% halothane anaesthesia. 6-OHDA was injected through a 25G needle connected via a polyethylene catheter to a 100 μl Hamilton syringe. The 6-OHDA was infused by a microdialysis infusion pump at a rate of 0.5 μl/min. The needle was left in the brain for a further 3 minutes before being slowly withdrawn. The skin was sutured with 2.0 silk and the rats were allowed to recover from anaesthesia. The rats were housed in a holding room with free access to food and water at all times except during behavioural testing.
Cyclic PG was dissolved in saline. Four different doses of cPG (0, 0.1, 0.5, 1 mg/kg, Bachem) were administered intraperitoneally 2 hours post lesion.
At 7 days post-lesion, rats were injected with 0.1 mg/kg apomorphine and the number of contralateral rotations/hour was recorded and calculated using a computerised Rotameter (St Diego Instruments). Experimenter was blinded from the treatment groups.
Cyclic(tri(prolylglycyl)) was dissolved in saline solution. Four different doses of Cyclic(tri(prolylglycyl)) (0, 0.1, 0.5, 1 mg/kg, NeuroBiomed) were administered intraperitoneally 2 hours post lesion.
Cyclic Glycyl-2-Methyl Proline (cGMeP) was dissolved in saline solution. Four different doses of cGMeP (0, 0.1, 0.5, 1 mg/kg, NeuroBiomed) were administered intraperitoneally 2 hours post lesion.

SMILES	patients with one or more AEs ([1]; 6-week treatment period, venlafaxine group) [%]	change from baseline in MADRS total score, Mean ± SD ([1]; LOCF, ANCOVA)	MADRS total score, Difference to Placebo ([1]; MMRM)	change from baseline in MADRS total score, Mean ± SD ([1]; MMRM)	MADRS total score, Difference to Placebo ([1]; MMRM, listed as venlafaxine)	MADRS total score, Difference to Placebo ([1]; OC, ANCOVA)	change from baseline in MADRS total score, Mean ± SD ([1]; OC, ANCOVA)	patients withdrawn due to AEs ([1]; venlafaxine group)	AEs reported by a majority of patients ([1]; venlafaxine group, 6 week)	improvement, recovery from glutamate induced neurotoxicity ([2]; 1-100 nM given 6 hours after the glutamate treatment, compared to vehicle)	reduction of glutamate induced neuronal death ([2]; administered simultaneously with glutamate, 1-100 nM, glutamate alone 85% loss of neurons) [%]	number of contralateral rotations/hour [3] [rotations/hour]
COc1ccc(C(CN(C)C)C2(O)CCCCC2)cc1 (stereo not drawn) [Venlafaxine, reference compound]	75	−21.9 ± 1.0	−8.1 ± 1.3	−23.5 ± 0.9	5.6±1.3	−5.6 ± 1.3	−22.2 ± 0.9	2 (25%) patients (%)	nausea, severe headache loss of strength, blurred vision, chest pain, fast or irregular heartbeat and suicidal thoughts			
CC12CCCN1C(=O)CNC2=O [cGMeP, (8aS)-Methyl-hexahydropyrrolo[1,2-a]pyrazine-1,4-dione]										approximately 58%	63	134±69
